In the experiment the test system is AKR/Lw mice, AKR lymphoma ip, median survival T/C. The experiment in a line: NCI In Vivo Anticancer Drug Screen. Data for tumor model Lymphoma AKR (Transplanted) (intraperitoneal) in AKR/Lw mice. The note with it: endpoint: median survival time, higher = longer survival. How it is done: The antitumor activity of compounds was measured in mice bearing transplantable tumors. Survival or tumor size were measured and the results are expressed as the measurement made in the treated group (T) divided by the measurement made in the vehicle treated control group (C). The tumor model used in this assay is Lymphoma AKR (Transplanted) (intraperitoneal) in AKR/Lw mice

Consider 3 compounds from PubChem BioAssay AID190 (DTP/NCI, 2004).

Values joined by “and” are separate entries in the source; they are usually repeats but may differ in a detail not shown here. Equal values may be shown once. Toxic doses and inconclusive results are not listed.

With `CC(CN1CC(=O)NC(=O)C1)N1CC(=O)NC(=O)C1` (stereo unspecified), the T/C (dose: 0.5 mg/kg/injection, schedule: Q01DX009 (ip), vehicle: saline) is 103 % of control; the T/C (dose: 1.6 mg/kg/injection, schedule: Q01DX009 (ip), vehicle: saline) is 116 % of control; the T/C (dose: 2.0 mg/kg/injection, schedule: Q01DX009 (ip), vehicle: saline) is 109 % of control; the T/C (dose: 2.5 mg/kg/injection, schedule: Q01DX009 (ip), vehicle: saline) is 90 % of control; the T/C (dose: 3.1 mg/kg/injection, schedule: Q01DX009 (ip), vehicle: saline) is 110 % of control and 113 % of control; the T/C (dose: 4.0 mg/kg/injection, schedule: Q01DX009 (ip), vehicle: saline) is 181 % of control. In addition, the T/C runs as follows: (dose: 5.0 mg/kg/injection, schedule: Q01DX009 (ip), vehicle: saline) 106 % of control; (dose: 10.0 mg/kg/injection, schedule: Q01DX009 (ip), vehicle: saline) 120 % of control; (dose: 12.5 mg/kg/injection, schedule: Q04DX003 (ip), vehicle: saline) 88 % of control and 90 % of control; (dose: 20.0 mg/kg/injection, schedule: Q01DX009 (ip), vehicle: saline) 150 % of control; (dose: 25.0 mg/kg/injection, schedule: Q01DX001 (ip), vehicle: saline) 94 % of control; (dose: 25.0 mg/kg/injection, schedule: Q04DX003 (ip), vehicle: saline) 105 % of control and 107 % of control. Also, the T/C (dose: 30.0 mg/kg/injection, schedule: Q01DX009 (ip), vehicle: saline) was 152 % of control; the T/C (dose: 35.0 mg/kg/injection, schedule: Q01DX009 (ip), vehicle: saline) is 152 % of control; the T/C (dose: 50.0 mg/kg/injection, schedule: Q01DX001 (ip), vehicle: saline) is 97 % of control and 106 % of control; the T/C (dose: 50.0 mg/kg/injection, schedule: Q04DX003 (ip), vehicle: saline) was 92 % of control and 100 % of control; the T/C (dose: 75.0 mg/kg/injection, schedule: Q04DX003 (ip), vehicle: saline) was 94 % of control; the T/C (dose: 150.0 mg/kg/injection, schedule: Q01DX001 (ip), vehicle: water) is 108 % of control. Also, the T/C (dose: 150.0 mg/kg/injection, schedule: Q04DX003 (ip), vehicle: saline) was 123 % of control; the T/C (dose: 200.0 mg/kg/injection, schedule: Q01DX009 (ip), vehicle: saline) was 108 % of control; the T/C (dose: 300.0 mg/kg/injection, schedule: Q01DX009 (ip), vehicle: saline) was 106 % of control; the T/C (dose: 300.0 mg/kg/injection, schedule: Q04DX003 (ip), vehicle: saline) was 100 % of control; the T/C (dose: 400.0 mg/kg/injection, schedule: Q01DX009 (ip), vehicle: saline) is 100 % of control; the T/C (dose: 600.0 mg/kg/injection, schedule: Q01DX001 (ip), vehicle: water) is 111 % of control.

`Nc1ccccc1SC1CC(=O)N(c2ccc(I)cc2)C1=O` (stereo unspecified): the T/C by setting is: (dose: 100.0 mg/kg/injection, schedule: Q01DX001 (ip), vehicle: Klucel (hydroxypropylcellulose) (HPC)) 93 % of control; (dose: 100.0 mg/kg/injection, schedule: Q04DX003 (ip), vehicle: Klucel (hydroxypropylcellulose) (HPC)) 90 % of control; (dose: 200.0 mg/kg/injection, schedule: Q04DX003 (ip), vehicle: Klucel (hydroxypropylcellulose) (HPC)) 86 % of control.

For the compound `CC(/C=N/N=C(N)N)=N\N=C(N)N`, the T/C by setting is: (dose: 1.5 mg/kg/injection, schedule: Q01DX015 (ip), vehicle: saline) 87 % of control; (dose: 5.0 mg/kg/injection, schedule: Q01DX015 (ip), vehicle: saline) 90 % of control; (dose: 6.25 mg/kg/injection, schedule: Q01DX015 (ip), vehicle: saline) 96 % of control; (dose: 10.0 mg/kg/injection, schedule: Q01DX015 (ip), vehicle: saline) 90 % of control.
